Results as given in PubChem BioAssay (NCI).
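1) Cells in 96-well plates. 2) Compound, 48 h, 5 concentrations. 3) Linear interpolation between surrounding doses. 4) Unreached endpoint = highest concentration. TGI is the concentration that stops growth completely.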

Experiments:
Test in all cases: NCI anticancer screen, dose series, 48 h
[1] = system: 786-0 renal
[2] = system: OVCAR-5 ovarian
[3] = system: K-562 leukemia
[4] = system: SF-268 CNS
[5] = system: SK-MEL-28 melanoma
[6] = system: OVCAR-8 ovarian
[7] = system: MDA-MB-435
[8] = system: COLO 205 colon
[9] = system: PC-3 prostate
[10] = system: BT-549 breast
[11] = system: MALME-3M melanoma
[12] = system: RXF 393 renal
[13] = system: RPMI-8226 leukemia
[14] = system: OVCAR-3 ovarian
[15] = system: SK-MEL-5 melanoma
[16] = system: LOX IMVI melanoma
[17] = system: U251 CNS
[18] = system: NCI/ADR-RES ovarian
[19] = system: SF-295 CNS
[20] = system: UACC-257 melanoma

Compound | TGI [1] [µM] | TGI [2] [µM] | TGI [3] [µM] | TGI [4] [µM] | TGI [5] [µM] | TGI [6] [µM] | TGI [7] [µM] | TGI [8] [µM] | TGI [9] [µM] | TGI [10] [µM] | TGI [11] [µM] | TGI [12] [µM] | TGI [13] [µM] | TGI [14] [µM] | TGI [15] [µM] | TGI [16] [µM] | TGI [17] [µM] | TGI [18] [µM] | TGI [19] [µM] | TGI [20] [µM]
COc1cc(CCNC2=CC(=O)c3ncccc3C2=O)ccc1O | 18.1 | 22.7 | 17.7 | 47.4 | 4.09 | 14.3 | 2.84 | 32.6 | 22.5 | 2.99 | 1.98 | 18 | 30.5 | 5.97 | 1.84 | 6.08 | 19.6 | > 23.3 | 4.02 | 4.28
NS(=O)(=O)c1ccc(NNc2c3ccccc3nc3c(C(=O)Nc4ccc(S(N)(=O)=O)cc4)cccc23)cc1 | > 100 | > 100 | 62.1 | 98.4 | > 100 | > 100 | > 100 | > 100 | > 100 | 54.7 | 99.8 | 64.5 | > 100 | > 100 | > 100 | 27.5 | 61 | > 100 | > 100 | > 100
NC(C(=O)O)C(O)c1cnc[nH]1 (stereo not given) | > 100 | > 100 | > 100 | > 100 | > 100 | > 100 | > 100 | > 100 | > 100 | > 100 | > 100 | > 100 | > 100 | > 100 | > 100 | > 100 | > 100 | > 100 | > 100 | > 100
CN(C)CCCCN1c2ccccc2Sc2ccc(N=[N+]=[N-])cc21 | 23.6 | 13.5 | 4.56 | 19.5 | 3.6 | 22.1 | 4.36 | 3.13 | 10.5 | 24.5 | 3.17 | 16.1 | 5.45 | 20 | 3.04 | 5.77 | 11.9 | 23.3 | 17.8 | 3.54
COc1cc(OC)cc(Oc2nc3ccc(C(F)(F)F)cc3nc2-c2ccccc2)c1 | > 100 | > 100 | > 100 | > 100 | > 100 | > 100 | > 100 | > 100 | > 100 | > 100 | > 100 | > 100 | > 100 | > 100 | > 100 | > 100 | > 100 | > 100 | > 100 | > 100
CC(=O)OCC1OC(NC(=S)Nn2c(-c3ccccc3)nc3ccccc3c2=O)C(OC(C)=O)C(OC(C)=O)C1OC(C)=O (stereo not given) | > 100 | > 100 | > 100 | > 100 | > 100 | > 100 | > 100 | > 100 | > 100 | > 100 | > 100 | > 100 | > 100 | > 100 | > 100 | > 100 | > 100 | > 100 | > 100 | > 100
CC(=O)OC1=C(c2ccccc2)S(=O)(=O)c2ccccc21 | > 100 | > 100 | > 100 | > 100 | > 100 | > 100 | > 100 | > 100 | > 100 | > 100 | > 100 | > 100 | > 100 | > 100 | > 100 | > 100 | > 100 | > 100 | > 100 | > 100
CC(=O)C1=C(C)N2C(=NC3=C(CCc4ccccc43)C2c2ccc(Cl)cc2)S1 (stereo not given) | > 100 | > 100 | > 56.2 | > 100 | > 100 | > 100 | > 100 | > 100 | > 100 | > 100 | > 100 | > 100 | 12.8 | > 100 | > 100 | > 100 | > 100 | > 100 | > 100 | > 100
CN1CN(c2ccccc2)C2(CCN(CCCN(C)c3ccc(F)cc3)CC2)C1=O | 42.2 | 41.8 | 30.1 | 54.6 | 37.9 | 45.2 | 37.4 | 24.1 | 63.8 | 31.1 | 38.1 | 46.2 | 80.4 | 31.7 | 29.8 | 31 | 33.3 | 51.3 | 28.3 | 33.6
CCOP(=O)(OCC)/C(F)=C/c1ccc(F)cc1 | > 100 | > 100 | > 100 | > 100 | > 100 | > 100 | > 100 | > 100 | > 100 | > 100 | > 100 | > 100 | > 100 | > 100 | > 100 | > 100 | > 100 | > 100 | > 100 | > 100
O=c1oc2cc(O)ccc2c(O)c1C(c1ccc(/C=C/c2ccccc2)cc1)c1c(O)c2ccc(O)cc2oc1=O | > 100 | > 100 | > 100 | > 100 | 60.5 | > 100 | > 100 | > 100 | > 100 | > 100 | > 100 | > 100 | > 100 | > 100 | 95 | > 100 | > 100 | > 100 | > 100 | > 100
Nc1nc(NCc2ccccc2)cc(NCc2ccccc2)n1 | 22.5 | 50.4 | > 100 | 19.3 | > 100 | 17.3 | 18.9 | 27.3 | 16.8 | 23.5 | 21.7 | 26.6 | 24.6 | 20.2 | 19.7 | 45 | 71.2 | 15.3 | 69 | 21.6
CC12CCC(C(=Nc3ccc([N+](=O)[O-])cc3)C1=O)C2(C)C (stereo not given) | 78.5 | > 100 | 55.2 | 47.3 | 37.4 | 55.3 | 64.6 | 44.6 | > 100 | > 100 | 30 | 44.9 | 52.3 | 55.1 | 90.7 | 31.3 | 97.6 | 63.5 | > 100 | > 100
